# Reference: PMC6333787, “Peptidyl-prolyl isomerase-B is involved in Mycobacterium tuberculosis biofilm formation and a generic target for drug repurposing-based intervention” (NPJ Biofilms and Microbiomes, 2019)
# Entries after “also recorded” stand apart in the source; their conditions may differ. Where two headings read alike, the source gives them in different places.
# Tests used:
# [1] = cited from earlier work
# From the text: Our next step was to identify suitable drug(s) that could act as an inhibitor of PpiB protein. Developing new drugs is a long process taking about 10–15 years. Drug repurposing is gaining popularity as it allows bypassing of the cumbersome clinical trial of drugs for which the parameters of toxicity and effectiveness have already been tested and approved.
# Candida albicans = conditions: cited from earlier work
# [2] = system: M. smegmatis (Ms_VC and Ms_PpiB); assay type: cell-based, Mycobacterium smegmatis
# M.tb PpiB = assay: Surface plasmon resonance (SPR); assay type: binding, Mycobacterium tuberculosis; conditions: rPpiB immobilised on CM5 sensor chip, PBS, association 300 s, dissociation 150 s
# M.tuberculosis H37Rv = assay type: cell-based, Mycobacterium tuberculosis
# Prokaryotic cyclophilins = conditions: cited from earlier work
# [3] = system: M. smegmatis (Ms_VC and Ms_PpiB); assay type: cell-based, Mycobacterium smegmatis; remark: listed apart in the source
# [4] = system: M.smegmatis expressing M.tb PpiB (Ms_PpiB) and vector control (Ms_VC); assay type: cell-based, Mycobacterium smegmatis
# C.parapsilosis = conditions: cited from earlier work
# [5] = system: M. smegmatis (Ms_VC and Ms_PpiB); assay type: cell-based, Mycobacterium smegmatis; conditions: for bacteriostatic effect at 100 µg/ml: up to 120 h; for Concentration up to which effect is bacteriostatic: 120 h as compared to 72 h; for bacteriostatic or bactericidal effect: M. smegmatis, summary statement
# [6] = system: M. smegmatis (Ms_VC and Ms_PpiB); assay type: cell-based, Mycobacterium smegmatis; remark: listed apart in the source
# [7] = system: M. smegmatis (Ms_VC and Ms_PpiB); conditions: general statement, no reference given; cited from earlier work
# [8] = system: M. smegmatis (Ms_VC and Ms_PpiB); conditions: general statement, no reference given; cited from earlier work; remark: listed apart in the source
# P.aeruginosa = conditions: cited from earlier work
# From the text: The presence of extracellular M.tb within biofilm like structure inside lung lesions of M.tb infected guinea pigs undergoing antibiotic treatment points to the possibility of biofilm formation within the host tissues.[7] Peptidyl-prolyl isomerases (PPIase), popularly known as cyclophilins, are ubiquitously expressed protein foldases which aid in protein folding or refolding by ...
# E. coli = conditions: cited from earlier work
# From the text: Acarbose is widely used for the management of type 2 Diabetes mellitus as well. […] There are several bacteria that are invol ...
molecule,measurement,setting,value
Cc1ccc(-c2cc(C(F)(F)F)nn2-c2ccc(S(N)(=O)=O)cc2)cc1 [Celebrex],repurposing outcome in patients,[1],decreasing polyp formation in colon cancer patients
cyclosporine-A,combination with fluconazole against C.albicans biofilms,Candida albicans,effective against biofilms formed by C.albicans
same,sensitisation of C. albicans biofilm to antifungal drugs,Candida albicans,sensitises drug-tolerant biofilm of Candida albicans to various antifungal drugs
same,sensitivity of C.albicans to fluconazole,Candida albicans,imparts sensitivity to C.albicans towards fluconazole
same,Threshold concentration at which viability was not significantly affected,[2],100 µg/mL
same,"viability, cyclosporine-A below 250 µg/ml",[2],insignificant effect
same,SPR interaction,M.tb PpiB,interact with M.tb PpiB in a dose dependent manner and bind with high affinity
same,"biofilm formation in H37Rv, cyclosporine-A",M.tuberculosis H37Rv,significant reduction (Fig. 5a) in biofilm formation
same,effect on H37Rv biofilm formation,M.tuberculosis H37Rv,disrupted M.tb H37Rv biofilm formation; also recorded: Suppressive effect
same,affinity for prokaryotic cyclophilins,Prokaryotic cyclophilins,weak affinity
same,decrease in ethambutol dosage with cyclosporine-A,[3],decreased four-fold
same,"biofilm formation, 100 µg/ml",[4],significant decrease (p < 0.05) in biofilm formation
same,"biofilm formation, 1000 µg/ml",[4],complete inhibition of biofilm formation (p < 0.005)
same,"biofilm formation, Ms_VC cells",[4],only basal levels of biofilm formation
same,"biofilm formation, induced PpiB tet+",[4],significant decrease in biofilm formation
same,"biofilm formation, uninduced PpiB tet-",[4],did not exhibit any significant change
same,synergy with antifungals against C.parapsilosis,C.parapsilosis,acts synergistically to improve the efficacy of antifungals against C.parapsilosis
same,bacteriostatic effect at 100 µg/ml,[5],bacteriostatic effect
same,Concentration up to which effect is bacteriostatic,[5],≤ 500 µg/mL
same,bacteriostatic or bactericidal effect,[5]; listed as cyclosporine A,bacteriostatic activity
same,bacteriostatic or bactericidal effect,[5]; listed as cyclosporine-A,bacteriostatic effect
same,reduction in dosage of anti-TB drugs,[6],at least two-fold
CCN(CC)CCCC(C)Nc1ccnc2cc(Cl)ccc12 (stereo not drawn) [chloroquine],repurposing outcome in patients,[1],improving outcome of cancer drug Erlotinib
"NNC(=O)c1ccncc1 [Isoniazid, isoniazid]","dosage of isoniazid, normally effective",[7],16 µg/mL
same,dosage of isoniazid with cyclosporine-A,[6],32 µg/mL
same,fold decrease in dosage of isoniazid,[6],2–4 fold
same,"dosage of isoniazid, absence of cyclosporine-A","[6]; Fig. 4a, PpiB tet+ biofilm, 7 days then 68 h isoniazid",64 µg/mL
same,"dosage of isoniazid, absence of acarbose","[6]; Fig. 4b, PpiB (tet+), 68 h",64 µg/mL
same,dosage of isoniazid with GaNP,"[6]; GaNP 50 µg/ml, Fig. 4c, 68 h",16 µg/mL
same,dosage of isoniazid with acarbose,"[6]; acarbose 500 µg/ml, Fig. 4b, PpiB (tet+), 68 h",32 µg/mL
CN(C)C(=N)N=C(N)N [metformin],repurposing outcome in patients,[1],lowering morbidity of TB patients
"CC[C@@H](CO)NCCN[C@@H](CC)CO [Ethambutol, ethambutol]","dosage of ethambutol, normally effective",[8],1 µg/mL
same,dosage of ethambutol with cyclosporine-A,[3],4 µg/mL
same,"dosage of ethambutol, control without GaNP","[3]; Fig. 4e, control",16 µg/mL
same,"dosage of ethambutol, absence of cyclosporine-A","[3]; Fig. 4d, PpiB tet+, 68 h",16 µg/mL
same,dosage of ethambutol with GaNP,"[3]; GaNP 50 µg/ml, Fig. 4e",1 µg/mL
O=C(Nc1ccc([N+](=O)[O-])cc1Cl)c1cc(Cl)ccc1O [niclosamide],effect against P.aeruginosa biofilm,P.aeruginosa,inhibitory effects against biofilms formed by P.aeruginosa
"C[C@H]1O[C@H](O[C@H]2[C@H](O)[C@@H](O)[C@@H](O[C@H]3[C@H](O)[C@@H](O)C(O)O[C@@H]3CO)O[C@@H]2CO)[C@H](O)[C@@H](O)[C@@H]1N[C@H]1C=C(CO)[C@@H](O)[C@H](O)[C@H]1O (stereo partly drawn) [Acarbose, acarbose]","viability, acarbose 10 mg/ml","[2]; 10 mg/ml, data not shown",no significant effect
same,Threshold concentration at which viability was not significantly affected,"[2]; M. smegmatis expressing PpiB, alamar blue",1000 µg/mL
same,"viability, acarbose up to 1000 µg/ml","[2]; up to 1000 µg/ml, Ms_VC or Ms_PpiB",no effect
same,maltose importer block and growth of E. coli,E. coli,block maltose importer and consequently suppress growth of E. coli
same,SPR interaction,M.tb PpiB,interact with M.tb PpiB in a dose dependent manner and bind with high affinity
same,efficacy in decreasing the dosage of ethambutol,"[3]; acarbose, data not shown",insignificant
same,"biofilm formation, induced PpiB tet+",[4],significant decrease in biofilm formation
same,"biofilm formation, acarbose 500 µg/ml and above",[4]; 500 µg/ml and above,inhibited biofilm formation
same,"biofilm formation, uninduced PpiB tet-",[4]; Ms_PpiB uninduced by anhydrotetracycline (PpiB tet-),did not exhibit any significant change
same,"biofilm formation, Ms_VC cells","[4]; Ms_VC, presence or absence of agent",only basal levels of biofilm formation
same,"biofilm formation, 500 and 1000 µg/ml","[4]; acarbose 500 and 1000 µg/ml, Ms_PpiB, compared to no acarbose, 7 days",significant inhibition in the biofilm formation
same,"biofilm formation, lower concentrations","[4]; acarbose at lower concentrations, VC tet- and PpiB tet-, ""Hormetic effect""",transient increase in biofilm formation
same,"biofilm formation, acarbose upto 100 µg/ml",[4]; lower concentration (upto 100 µg/ml),increase in biofilm formation
same,bacteriostatic effect at 100 µg/ml,[5],bacteriostatic effect
same,Concentration up to which effect is bacteriostatic,[5],≤ 1000 µg/mL
same,bacteriostatic or bactericidal effect,[5],bacteriostatic effect; also recorded: bacteriostatic activity
same,reduction in dosage of anti-TB drugs,"[6]; co-treatment, isoniazid/ethambutol",at least two-fold
